Measurements published in the supplement of paper PMC11451515.

Tests used:
Conditions in all cases: 48 h
NOMO1 [1] = assay: AUC of viability dose-response curve (% viability x log10 dose units); higher = less sensitive
Summary of the method: (§1)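 Leukemia cells adapted to each medium were seeded at 500 or 1000 cells/well in 1536-well plates and dosed with library compounds in DMSO at 11 threefold doses from 47 μM to 0.79 nM for 48 h at 37°C. CellTiter-Glo One luminescence was normalised per plate to DMSO and cell-free wells, then fitted with a four-parameter log-logistic model over log10 doses. Area under the curve was taken from this fit by the trapezoidal rule, with curves above full viability scaled and curves failing quality control removed.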

P12-Ichikawa [2] = assay: as above
Summary of the method: as §1

SEM cells [3] = assay: as above
Summary of the method: as §1

NOMO1 [4] = assay: cell viability relative to DMSO control; higher = less cytotoxic
Summary of the method: (§2)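 NOMO1 or SEM cells were plated at 500 cells/well and P12-Ichikawa cells at 1000 cells/well in 1536-well plates (5 μl), after each leukemia line had been adapted for at least four passages in each medium. Pin dosing delivered library compounds in DMSO at 11 threefold concentrations, 47 μM to 0.79 nM. CellTiter-Glo One luminescence was read after 48 h at 37°C. Viability is reported as a per-plate percentage of DMSO wells, with cell-free wells as background.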

P12-Ichikawa [5] = assay: as above
Summary of the method: as §2

SEM cells [6] = assay: as above
Summary of the method: as §2

CC(C)C[C@@H](N)[C@H](O)C(=O)N[C@H](C(=O)N[C@H](C(=O)N[C@@H](CC(=O)O)C(=O)O)C(C)C)C(C)C
AUC of viability dose-response curve
Conditions	NOMO1 [1]	P12-Ichikawa [2]	SEM cells [3]
HPLM + 10% dialyzed FBS	455	468	465
RPMI 5 mM glucose + 10% FBS	462	433	446
RPMI 5 mM glucose + 10% dialyzed FBS	463	450	477

COc1ccc(-c2cc3c(C)nc(N)nc3n([C@H]3CC[C@H](OCCO)CC3)c2=O)cn1
cell viability [%]
Conditions	NOMO1 [4]	P12-Ichikawa [5]	SEM cells [6]
HPLM + 10% dialyzed FBS, 0.000781 µM	96.9	103	99.4
HPLM + 10% dialyzed FBS, 0.00234 µM	97.5	107	91.8
HPLM + 10% dialyzed FBS, 0.00702 µM	88.7	103	84.6
HPLM + 10% dialyzed FBS, 0.0211 µM	76.4	85.5	77.2
HPLM + 10% dialyzed FBS, 0.0632 µM	74.2	88.3	70.5
HPLM + 10% dialyzed FBS, 0.19 µM	50	72	64.9
HPLM + 10% dialyzed FBS, 0.569 µM	52.6	66.2	47
HPLM + 10% dialyzed FBS, 1.71 µM	38	66	32.6
HPLM + 10% dialyzed FBS, 5.12 µM	38.8	63.9	24.3
HPLM + 10% dialyzed FBS, 15.4 µM	28.3	63.5	6.37
HPLM + 10% dialyzed FBS, 46.1 µM	20	48.2	1
RPMI 5 mM glucose + 10% FBS, 0.000781 µM	93.6	98.2	105
RPMI 5 mM glucose + 10% FBS, 0.00234 µM	87	95.3	105
RPMI 5 mM glucose + 10% FBS, 0.00702 µM	90.7	85.9	97.8
RPMI 5 mM glucose + 10% FBS, 0.0211 µM	84.8	78	99.8
RPMI 5 mM glucose + 10% FBS, 0.0632 µM	87.4	70.2	79.8
RPMI 5 mM glucose + 10% FBS, 0.19 µM	64.5	55.1	62.1
RPMI 5 mM glucose + 10% FBS, 0.569 µM	68.5	51.4	55.3
RPMI 5 mM glucose + 10% FBS, 1.71 µM	47.7	44.8	29.1
RPMI 5 mM glucose + 10% FBS, 5.12 µM	43.1	42.7	29.6
RPMI 5 mM glucose + 10% FBS, 15.4 µM	40.3	37.9	9.56
RPMI 5 mM glucose + 10% FBS, 46.1 µM	28.4	35.4	1.08
RPMI 5 mM glucose + 10% dialyzed FBS, 0.000781 µM	86.8	96.6	79.7
RPMI 5 mM glucose + 10% dialyzed FBS, 0.00234 µM	86.6	98.2	86.1
RPMI 5 mM glucose + 10% dialyzed FBS, 0.00702 µM	80.7	85.1	75.4
RPMI 5 mM glucose + 10% dialyzed FBS, 0.0211 µM	75.1	76	75.3
RPMI 5 mM glucose + 10% dialyzed FBS, 0.0632 µM	66.4	72.3	69.7
RPMI 5 mM glucose + 10% dialyzed FBS, 0.19 µM	58.4	58.7	58.9
RPMI 5 mM glucose + 10% dialyzed FBS, 0.569 µM	50	55.5	46.4
RPMI 5 mM glucose + 10% dialyzed FBS, 1.71 µM	41.2	45.9	34.7
RPMI 5 mM glucose + 10% dialyzed FBS, 5.12 µM	37.6	39.3	29.3
RPMI 5 mM glucose + 10% dialyzed FBS, 15.4 µM	34.8	38.7	14.6
RPMI 5 mM glucose + 10% dialyzed FBS, 46.1 µM	23.3	37.4	1.67

AUC of viability dose-response curve
Conditions	HPLM + 10% dialyzed FBS	RPMI 5 mM glucose + 10% FBS	RPMI 5 mM glucose + 10% dialyzed FBS
NOMO1 [1]	286	322	278
P12-Ichikawa [2]	351	299	304
